By Kd is commonly meant the concentration at which binding is half-saturated.

Entries after “also recorded” stand apart in the source; their conditions may differ.

These results are taken from EP2062578A1, “Novel use of chemical compounds for the treatment of AIDS” (priority 2007, dated 2009).

The test system of assay [1] is Nef-mediated MHC-I down-regulation. In words: MHC-I down-regulation by Nef in Nef-GFP transfected human PBMC (flow cytometry). It counts as cell-based. The conditions noted are these: 25µM or 10µM for 3 hr, compared with 5µM LY294002 as control. The protocol:
(§1) Nef advances the endocytosis and degradation of […] surface proteins, including CD4 and MHC proteins (Schwartz et al., 1996, Nature Medecine 2:338-342). Consequently, some compounds of the instant invention were tested for their ability to prevent their degradations by interacting with Nef. Human peripheral blood mononuclear cells (PBMC) from healthy volunteers were purified by Ficoll gradient centrifugation ( Lymphoprep™, Axis-shield). Washed, isolated PBMC were transiently transfected using the nucleofection technology (human T cell Nucleofector™ kit, 5.10^6 cells, 5µg plasmid DNA Nef-GFP or GFP (Nucleofactor Program V-024™, Amaxa Biosystems)). The same Nef sequence as described above in example 1 was cloned in pEGFP-N3 (Clonetech). […]
(§2) At 45 hr post transfection cells were treated with 25 µM of Compound X or 0.5% DMSO (control) for 3 hrs. Cells were then incubated with human anti-CD4+-PE or human anti-HLA-ABC (MHC-I) and analyzed by flow cytometry. Flow Cytometric Analysis were performed as follows: Cells were washed and resuspended in fluorescence-activated cell sorter (FACS) medium (PBS 2% FCS 0.02% NaN3, pH 7.2). […] Cells were washed and analyzed on FACS scan using Flow Jo software™ (Beckman Coulter for 20100326 and BD Pharmingen for 551497).
(§3) Viable CD4+ T cells were analyzed for GFP and anti-CD4+ (panel A, figure 2) or GFP and anti-HLA-ABC (panel B, figure 2) staining. […]
For orientation: A flow cytometer gives signals particle by particle.

The test system of assay [2] is Nef-mediated CD4 down-regulation. Nature of the assay: CD4 down-regulation by Nef in Nef-GFP transfected human PBMC (flow cytometry). The conditions noted are these: 25µM or 10µM for 3 hr. Type of assay: cell-based. The protocol: as §1, §2, §3
Another assay has as its target T1, Nef57-205 (Human immunodeficiency virus type 1 group M subtype B, UniProt P03406).
T1 construct: Purified Nef57-205, as described in Arold et al, Structure 1997 5(10) p 1361); made in house
Nature of the assay: Isothermal Titration Calorimetry (ITC) binding to Nef57-205. The arrangement: species or system HIV-1. The note with it: for ΔH: enthalpy variation; for ΔH / TΔS / ΔG / N: ITC at 25 °C; for TΔS: entropy variation; for ΔG: free enthalpy variation; for N: stoichiometry, Compound X in 20 mM Hepes pH 7.0, Compound Y in 20 mM Na-phosphate pH 8.0, 100 mM NaCl, 5% DMSO. Here is the method: Isothermal titration calorimetry (ITC) is used to investigate in vitro the binding affinity and thermodynamic parameters of the inhibitory molecules.
Purified Nef57-205, as described in Arold et al, Structure 1997 5(10) p 1361) was extensively dialyzed in degassed ITC buffer (20 mM Hepes pH 7.0, 100 mM NaCl, 5% DMSO), except for binding experiments with Compound Y, where 20 mM Na-phosphate pH 8.0, 100 mM NaCl, 5% DMSO was used as buffer. Synthetic inhibitors were first dissolved at 10 mM in 100% DMSO, and then diluted to 300 - 400 µM in ITC buffer with DMSO concentration adjusted to 5%. Inhibitors were injected from the 300 µL syringe into the 1.4 mL sample cell containing 15-25 µM Nef57-205. ITC titrations were performed at 25 °C, using 10 - 15 µl injections every 300 secondes. All inhibitors were also titrated into ITC buffer alone, and the resulting heat of dilution was subtracted from the experimental curves. ITC was performed with a VP ITC MicroCalorimeter from MicroCal Inc., and data were fitted with Microcal Origin™ software. The results are summarized in Table I and illustrated in Figure 1.
A general note: ITC needs no label: the signal is the heat of the interaction.

In the case of `CC(C)(C)c1ccc(OC(=O)Nc2ccc(O)c(C(=O)O)c2)cc1` [Compound X, 2-hydroxy-5-[(4-tert-butylphenoxy)carbonylamino]benzoic acid], the “Nef-mediated MHC-I down-regulation” value in assay [1] is on record as “reduce in a dose-dependent manner; also recorded: partially blocked”. In addition, the “Nef-mediated CD4 down-regulation” value in assay [2] is reported as “not”. Further, on Nef57-205, the affinity, expressed as Kd, was 1800 ± 850 nM; the ΔH is -0.956 ± 0.096 kcal/mol; the TΔS amounted to 6.88 kcal/mol; the ΔG was -7.84 kcal/mol. Further, on Nef57-205, the N stood at 0.83 ± 0.06.
Regarding `CC(C)(C)c1ccc(OCC(=O)Nc2cccc(C(=O)O)c2)cc1` [Compound Y, 3-{[(4-tert-butylphenoxy)acetyl]amino}benzoic acid], at Nef57-205, binding was put at a Kd of 980 ± 300 nM, the ΔH is -0.765 ± 0.0478 kcal/mol, the TΔS came to 7.41 kcal/mol and the ΔG was -8.17 kcal/mol. The compound further had a N at Nef57-205 of 1.14 ± 0.1.
